Ends that are not written are not given here.
Columns and labels:
[1] = system: second-order arterioles in the cheek pouch of hamsters with spontaneous hypertension; experiment: Arteriolar diameter in hamster cheek pouch microcirculation, hamsters with spontaneous hypertension; type: in vivo
Procedure: (§1) Adult male hamsters with spontaneous hypertension (n=21) and age- and genetically-matched normotensive controls (n=20) were purchased from the Canadian Hybrid Farns, Halls Harbor, NS, Canada. In preparation, the animals were anesthetized interperitoneally with sodium pentobarbital (6 mg/100 g body weight) and a tracheostomy was performed to facilitate spontaneous breathing. The left femoral vein was cannulated to inject supplemental anesthesia (2 to 4 mg per 100 g body weight per hour) during the experiment. A catheter was inserted into the left femoral artery to record systemic arterial pressure and heart rate. Body temperature was monitored to maintain a constant 37-38° C. throughout the experiment using a heating pad.
(§2) In order to visualize microcirculation of the cheek pouch, previously described methods were employed [Gao, et al., Life Sci. 64: PL274-PL252 (1994); Mayhan and Joyner, Microvasc. Res. 28: 159-179 (1984); Mayban and Rubinstein, Biochem. Biophys. Res. Commun. 184:1372-1377 (1992); Raud, Acta Physiol. Scand. Suppl. 578:1-58 (1989); Rubinstein and Mayban, J. Lab. Clin. Med. 25:313-318 (1995); Rubinstein, et al., Am. J. Physiol. 261 (Heart Circ. Physiol. 30):111913-111918 (1991); and Suzuki, et al., Life Sci. 57:1451-1457 (1995)]. Briefly, the left cheek pouch was spread over a small plastic baseplate, and an incision was made in the outer skin to expose, the cheek pouch membrane. […]
(§3) Change in arteriolar diameter was determined as follows. […] The inner wall diameter of secondorder arterioles in the cheek pouch was measured from the video display of the microscope image using a videomicrometer (VIA-100, Boeckeler Instruments, Tucson, Ariz.). […]
VIP alone or encapsulated in liposomes was suffused for 7 minutes at a concentration of VIP of either 0.05 or 0.1 nmol peptide, and more than 30 minutes elapsed between subsequent applications of the peptide. Changes in arteriolar diameter before, during, and after topical application of VIP were determined as outlined above. […]

[2] = system: hamsters with spontaneous hypertension; experiment: Mean arterial pressure after intravenous administration, hamsters with spontaneous hypertension; type: in vivo, hamster
From the text: The provisional application further disclosed that a bolus intravenous injection of 1.0 nmol VIP-PEG-liposome compound acted to decrease mean arterial pressure (MAP) in hamsters with spontaneous hypertension. The results are reproduced herein as FIGS. 2A and 2B; FIG. 2A showing the actual decrease on arterial pressure and FIG. 2B showing the percent change. Data are mean values ± one standard error of the mean; an asterisk indicates statistically significant values compared to control with p value less than 0.05.
In examining the duration and efficacy of VIP in the two liposome preparations on mean arterial pressure, the following procedure was carried out. Adult mate hamsters with spontaneous hypertension (n=12) were obtained from the Canadian Hybrid Farms (Hall Harbour, Nova Scotia, Canada). Approximately 500 μl each of three test preparations, liposomes prepared by the second method above, VIP in aqueous solution, and liposomes without VIP, were injected administered over the course of 1 minute in the femoral vein. Continuous anesthesia of the animals limited the duration of the experiment to 6 hours.
Adult male golden Syrian hypertensive hamsters were prepared for intravital microscopy, cheek pouch microcirculation observed and measured, and mean arterial pressure determined, each technique as described above. […]

neutrophil = experiment: Neutrophil chemotaxis in two chamber apparatus (response to fmlp); type: cell-based; details: FIG. 5
From the text: Finally, as another experiment the effect of VIP-PEG-liposomes on neutrophil chemotaxis was examined using a two chamber apparatus routinely employed for in vitro analysis of chemotaxis. Neutrophil migration from the upper chamber into the lower chamber in response to formyl-methionyl-leucyl-phenylalanyl (fmlp) peptide in the lower chamber was initially established at a baseline control.

[3] = system: second-order arterioles in the cheek pouch of normotensive hamsters; details: 0.1 nmol VIP dissolved in saline; Suzuki et al. 1995; cited from earlier work
[4] = system: second-order arterioles in the cheek pouch of normotensive hamsters; experiment: Arteriolar diameter in hamster cheek pouch microcirculation, normotensive hamsters; type: in vivo; details: Example 1; 0.05 or 0.1 nmol VIP suffused for 7 minutes
Procedure: According to another experiment, normotensive hamsters were suffused onto the cheek pouch for 7 minutes with 0.1 nmol VIP-PEG-liposome composition which produced a significant increase in mean arterial diameter in situ. The results of this experiment are shown in FIG. 3 with data and significance indicated for results in FIGS. 2A and 2B above. […] Arterial diameter returned to baseline 9 minutes after suffusion was discontinued.
as §1, §2, §3

Question: Which “vasorelaxation, hypertensive versus normotensive hamsters” value ([1]; Example 1, endothelium independent vasodilator control in the cheek pouch) does the source give for `O=[N+]([O-])OCC(CO[N+](=O)[O-])O[N+](=O)[O-]` [nitroglycerin] here?
Answer: vasorelaxation of similar magnitude in both groups

Question: With “vasoactive intestinal peptide (HSDAVFTDNYTRLRKQMAVKKYLNSILN; ends and bridges not checked; UniProt P01282 125-152, looked up) [VIP]” as the compound, how does the “effect on mean arterial pressure” value ([2]; Example 3, injected in the femoral vein over 1 minute) read?
Answer: No significant effect on mean arterial pressure

Question: And the “effect on mean arterial pressure” value ([2]; Example 5, hypertensive hamsters)?
Answer: no effect

Question: And the “neutrophil migration against fmlp in the lower chamber” value (neutrophil; test substance added with neutrophils in the upper chamber)?
Answer: significant migration was observed

Question: What about the “neutrophil migration against test substance in the lower chamber” value (neutrophil; test substance in lower chamber, no fmlp) of the same compound?
Answer: negligible

Question: And the “increase in arteriolar diameter” value [3]?
Answer: approximately 10%

Question: What about the “effect on arteriolar diameter” value ([1]; Example 1, 0.05 or 0.1 nmol VIP suffused for 7 minutes) of the same compound?
Answer: no significant effects on arteriolar diameter

Question: What about the “effect on arteriolar diameter” value ([1]; Example 5, hypertensive hamsters, suffusion for 7 minutes) of the same compound?
Answer: no effects

Question: What about the “effect on arteriolar diameter” value [4] of the same compound?
Answer: significant vasodilation

Question: And the “time after suffusion was stopped until return to baseline / persistence of vasodilation” value [4]?
Answer: ≤ 1 min

Question: What about the “time to maximal response from start of suffusion” value [4] of the same compound?
Answer: ≤ 4 min

From patent US6348214B1, “Materials and methods for making improved liposome compositions” (The Board of Trustees of the Illinois, priority 1996, dated 2002)
